Source: patent US20260191817A1, “FIBROBLAST MODULATORS IN STROMA-RICH TUMORS” (UNIVERSITEIT GENT, priority 2022, published 2026)
Entries after “also recorded” stand apart in the source; their conditions may differ.

Columns and labels:
CAF03 glioblastoma CAFs = experiment: AFM spheroid stiffness, CAF03 glioblastoma CAFs; format: cell-based; conditions: 1 μM, 48 h
Description: It is well established that an increased tumor and ECM stiffness is associated with a negative prognosis as it promotes tumor growth, progression, therapy resistance, immunosuppression and metastasis. Stiffness is chiefly regulated by the action of the CAFs in the TME. Stiffness modulation is, therefore, a fitting read-out of activity in a screen for CAF modulators. To assess stiffness modulation, the stiffness of spheroids of CAF cells treated with test compounds was interrogated using atomic force microscopy (AFM) indentation and compared with untreated cells. AFM measurement of the stiffness (elasticity) of cells and spheroids is a technique well-known to those skilled in the art. AFM measures the force required to create a given deflection, this read-out is also known as the Young's modulus. AFM is widely used in biology and cancer research: altered physicochemical properties of live cells serve as a read-out of altered complex physiological processes.
(§1) U-shaped, 384-well ULA plates (cat. no. MS-9384UZ, S-bio) were seeded with a suspension of cell-specific culture media with cells. Cells were allowed to form spheroids for an appropriate time under treatment conditions before use in experiments. Cell culture dishes (cat. no. 734-2814, VWR) were filled with collagen gel and placed at 37° C. for an appropriate time to allow solidification. For each condition, spheroids were pooled in one cell culture dish. The medium was removed (stored at 37° C.) to promote attachment of the bottom of each spheroid to the collagen gel. The cell culture dishes were incubated at 37° C. After the incubation period, the stored medium was carefully (prevent detachment of spheroids) added to the dishes.
(§2) Mechanical measurements were performed using an atomic force microscope. To indent the spheroids an in-house made colloidal probe was used. Force curves were collected using an appropriate setpoint and probe speed (depending on the stiffness of the spheroids). On each spheroid multiple force curves were collected. Collected curves were then processed using the JPK DP software. Young's modulus was extracted from the force curves. All experiments were performed in biological triplicate.
(§3) To generate 3D cultures mimicking the complexity and pathophysiology of in vivo tumors, spheroids were used (cfr. point 4). Spheroids are considered to better simulate cellular heterogeneity, nutrient and oxygen gradients, cell-cell interactions, cell-matrix interactions, gene expression profiles, stromal interactions, therapeutic responses, multicellular resistance, drug penetration and anti-apoptotic signaling.

[1] = test system: HCA2 hTERT dermal fibroblasts; experiment: AFM spheroid stiffness, HCA2 hTERT dermal fibroblasts; format: cell-based; conditions: HCA2 hTERT normal dermal fibroblasts; 1 μM, 48 h
Experimental: (§4) Selectivity for CAFs with respect to normal fibroblasts and other cell types was assessed by performing an identical experiment with normal fibroblasts and other cell types, where compounds were considered selective for CAFs if they only modulate CAF stiffness.
as §1, §2, §3

[2] = test system: MCF-7/6 breast cancer cells; experiment: AFM spheroid stiffness, MCF-7/6 breast cancer cells; format: cell-based, human; conditions: 48 h
Experimental: as §4, §1, §2, §3

[3] = test system: primary glioblastoma (GBM) cells; experiment: AFM spheroid stiffness, primary glioblastoma cells; format: cell-based, human; conditions: 48 h
Experimental: as §4, §1, §2, §3

4T1-luc cells = experiment: 4T1-based intraductal model for triple-negative breast cancer: metastases; format: in vivo, BALB/c mice; conditions: oral in Medigel, 100 mg/kg three times per day; 6 w p.i.; compared to DMSO
Experimental: Intraductal inoculations were performed in the third mammary gland pair of lactating female mice. In order to become lactating, 8-w-old female BALB/c mice were mated with male BALB/c mice of the same age and pups were weaned 12-14 d after delivery. One hour after weaning, lactating females received inhalation anesthesia using a mixture of oxygen and isoflurane (2-3%) and were subsequently inoculated through the mammary teat canal using a 32-gauge blunt needle with 5×10^4 4T1-luc cells suspended in a 100 μl mixture of PBS and Matrigel® (1:10; Corning, Bedford, MA, USA). All necessary materials for inoculation were pre-cooled to avoid Matrigel® coagulation. […]
Compounds were dissolved in DMSO. […] The amount of Medigel given to the mice was weekly determined and depended on the mean mouse body weight and consumption. […]
Body weight and body temperature were measured every day during the first week p.i., and once a week during the following 5 weeks (i.e. up to 6 w p.i.) using a digital weighing scale and a rectal temperature probe, respectively. As a measurement of primary tumor growth, primary tumor volumes were weekly monitored using a digital caliper and 4T1-luc-derived bioluminescence in primary tumors was monitored at 1, 3 and 6 w p.i. using the IVIS lumina III system (PerkinElmer, Zaventem, Belgium). […]

Row | SMILES | spheroid stiffness (CAF03 glioblastoma CAFs) | spheroid stiffness [1] | spheroid stiffness ([2]; 1 μM) | spheroid stiffness ([2]; 0.03-3 μM) | spheroid stiffness ([3]; 1 μM) | spheroid stiffness ([3]; 0.03-3 μM) | metastatic burden in lung, liver and axillary lymph node metastases (ex-vivo bioluminescence) (4T1-luc cells)
1 | COc1cc(C(=O)/C=C/c2ccc(F)cc2)cc(OC)c1OC [Compound A1, 3-(4-Fluorophenyl)-1-(3,4,5-trimethoxyphenyl)prop2-en-1-one] | decreased; also recorded: active | no effect | no effect | not result in a change | no effect | nor did it change | overall reduction
2 | COc1cc2oc(-c3ccc(F)cc3)cc(=O)c2c(OC)c1OC [Compound B1, 2-(4-Fluorophenyl)-5,6,7-trimethoxy-4H-chromen-4-one] | active | no effect | no effect | – | no effect | – | overall reduction
